Assay results from US10322995B2, “Substituted cyano cycloalkyl penta-2,4-dienes, cyano cycloalkyl pent-2-en-4-ynes, cyano heterocyclyl penta-2,4-dienes and cyano heterocyclyl pent-2-en-4-ynes as active substances against abiotic plant stress” (BAYER CROPSCIENCE AKTIENGESELLSCHAFT, priority 2014, dated 2019).

Assays:
[1] = tested on: Triticum aestivum (TRZAS); experiment: In vivo analyses Part C: drought stress, appearance vs stressed control plants in categories (TRZAS); parameters: key: 0: no positive effect; 10: slight positive effect; 20: clear positive effect; 30: strong positive effect; details: appearance vs stressed control plants after recovery phase, efficacy range of 3-4 pots
Protocol: Seeds of monocotyledonous and dicotyledonous crop plants were sown in sandy loam in plastic or wood-fibre pots, covered with soil or sand and cultivated in a greenhouse under good growth conditions. The test plants were treated at the early leaf stage (BBCH10-BBCH13). To assure uniform water supply before commencement of stress, the potted plants were supplied with water by dam irrigation prior to substance application. The inventive compounds were first formulated as wettable powders (WP) or dissolved in a solvent mixture. The further dilution was effected with water supplemented with 0.2% wetting agent (e.g. agrotin). The finished spray liquor was sprayed onto the green parts of the plant at an equivalent water application rate of 600 I/ha. Substance application was followed immediately by stress treatment of the plants. For this purpose, the wood-fibre pots were transferred in plastic inserts in order to prevent them from subsequently drying out too quickly. Drought stress was induced by gradual drying out under the following conditions: “Day”: 14 hours with illumination at 26-30° C. “Night”: 10 hours without illumination at 18-20° C. The duration of the respective stress phases was guided mainly by the condition of the stressed control plants. It was ended (by re-irrigating and transfer to a greenhouse with good growth conditions) as soon as irreversible damage was observed on the stressed control plants. The end of the stress phase was followed by an about 4-7-day recovery phase, during which the plants were once again kept under good growth conditions in a greenhouse. The duration of the recovery phase was guided mainly by when the trial plants had attained a state which enabled visual scoring of potential effects, and was therefore variable. Once this juncture had been reached, the appearance of the plants treated with test substances was recorded in comparison to the stressed control plants by the following categories: [table] For each substance and dosage, 3-4 pots were treated and evaluated. TRZAS=Triticum aestivum

[2] = molecular target: T1, phosphatase ABI1 via the co-regulator RCAR11/PYR1 (Arabidopsis thaliana, UniProt O49686+P49597); experiment: In vitro assay: inhibition of the phosphatase ABI1 via the co-regulator RCAR11/PYR1, MUP dephosphorylation, fluorescence; format: biochemical; parameters: inhibition: dose or concentration left out as unconfirmed; details: MUP dephosphorylation, fluorescence 460 nm; for ABI1 inhibition: concentration of 5 mM of the substance in a solution of DMSO and water; for inhibition: read-out: ABI1 inhibition
T1 sequence (O49686 1-191): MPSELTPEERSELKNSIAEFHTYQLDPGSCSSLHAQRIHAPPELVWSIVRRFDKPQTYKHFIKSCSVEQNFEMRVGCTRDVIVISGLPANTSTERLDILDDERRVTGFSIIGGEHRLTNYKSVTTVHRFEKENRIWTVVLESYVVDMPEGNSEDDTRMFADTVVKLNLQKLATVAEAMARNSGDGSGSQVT
T1 sequence (P49597 1-434): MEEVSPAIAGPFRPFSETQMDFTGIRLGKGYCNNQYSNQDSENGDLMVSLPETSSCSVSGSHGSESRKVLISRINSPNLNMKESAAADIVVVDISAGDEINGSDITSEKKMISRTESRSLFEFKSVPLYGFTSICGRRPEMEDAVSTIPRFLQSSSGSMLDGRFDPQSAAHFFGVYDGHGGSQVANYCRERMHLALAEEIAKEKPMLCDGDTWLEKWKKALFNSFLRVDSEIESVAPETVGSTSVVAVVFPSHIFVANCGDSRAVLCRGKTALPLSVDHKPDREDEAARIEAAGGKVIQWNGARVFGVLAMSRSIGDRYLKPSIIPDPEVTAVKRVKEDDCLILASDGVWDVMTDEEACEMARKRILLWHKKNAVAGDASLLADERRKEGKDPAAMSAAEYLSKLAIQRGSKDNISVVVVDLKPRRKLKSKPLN
Source text: Effects of the phytohormone abscisic acid (ABA) on the behaviour of plants under abiotic stress and the mechanism of action of ABA are described in the literature (cf. Abrams et al, WO97/23441, Cutler, Park et al. Science, 2009, 324, 1068; Grill et al. Science, 2009, 324, 1064; Tanokura et al. Biophysics, 2011, 7, 123; Schroeder et al. Plant J. 2010, 61, 290). Therefore, it is possible with the aid of a suitable in vitro test system to derive a correlation between the action of ABA and the stress response of a plant under abiotic stress. Under drought stress, plants form the phytohormone abscisic acid (ABA). This binds, along with a co-regulator (Regulatory Component of ABA-Receptor=RCAR according to Grill et al. Science, 2009, 324, 1064 or PYR/PYL according to Cutler et al. Science, 2009, 324, 1068), to a phosphatase (e.g. ABI1, a type 2C protein phosphatase, also abbreviated to PP2C) and inhibits its activity. As a result, a “downstream” kinase (e.g. SnRK2) is no longer dephosphorylated. This kinase, which is thus active, via phosphorylation of transcription factors (e.g. AREB/ABF, vgl. Yoshida et al., Plant J. 2010, 61, 672), switches on a genetic protection programme to increase drought stress tolerance.
The assay described hereinafter utilizes the inhibition of the phosphatase ABI1 via the co-regulator RCAR11/PYR1 aus Arabidopsis thaliana.
For the determination of activity, the dephosphorylation of 4-methylumbelliferyl phosphate (MUP) was measured at 460 nm. The in vitro assay was conducted in Greiner 384-well PS microplates F-well, using two controls: a) dimethyl sulphoxide (DMSO) 0.5% (f.c.) and b) 5 μM (f.c.) abscisic acid (ABA). […] The substance solution thus obtained, if necessary, was stirred with esterase from porcine liver (EC 3.1.1.1) at room temperature for 3 h and centrifuged at 4000 rpm for 30 min. A total volume of 45 μl was introduced into each cavity of the microplate, having the following composition: • 1) 5 μl of substance solution, i.e. a) DMSO 5% or b) abscisic acid solution or c) the corresponding example compound of the general formula (I) dissolved in 5% DMSO. • 2) 20 μl of enzyme buffer mix, composed of a) 40% by vol. of enzyme buffer (10 ml contain equal proportions by volume of 500 mM Tris-HCl pH8, 500 mM NaCl, 3.33 mM MnCl2, 40 mM dithiothreitol (DTT)), b) 4% by vol. of ABI1 dilution (protein stock solution was diluted so as to give, after addition, a final concentration in the assay of 0.15 μg ABI1/well), c) 4% by vol. of RCAR11 dilution (enzyme stock was diluted so as to give, on addition of the dilution to the enzyme buffer mix, a final concentration in the assay of 0.30 μg enzyme/well), d) 5% by vol. of Tween20 (1%), e) 47% by vol. H2O bi-dist. • 3) 20 μl of substrate mix, composed of a) 10% by vol. of 500 mM Tris-HCl pH8, b) 10% by vol. of 500 mM NaCl, c) 10% by vol. of 3.33 mM MnCl2, d) 5% by vol. of 25 mM MUP, 5% by vol. of Tween20 (1%), 60% by vol. of H2O bi-dist.
Enzyme buffer mix and substrate mix were made up 5 minutes prior to the addition and warmed to a temperature of 35° C. On completion of pipetting of all the solutions and on completion of mixing, the plate was incubated at 35° C. for 20 minutes. Finally, a relative fluorescence measurement was made at 35° C. with a BMG Labtech “POLARstar Optima” microplate reader using a 340/10 nm excitation filter and a 460 nm emission filter. The efficacy of the compounds of the general formula (I) is reported in the table which follows using abscisic acid (No. 64) as comparative substance according to the following classification: ++++ (inhibition≥90%), +++ (90%>inhibition≥70%), ++ (70%>inhibition≥50%), +(50%>inhibition≥30%).
Effects of selected compounds of the general formula (I) in the above-described in vitro assay at a concentration of 5 mM of the substance of the general formula (I) in question in a solution of DMSO and water: […]

Brassica napus (BRSNS) = experiment: In vivo analyses Part B: drought stress, appearance vs stressed control plants in categories (BRSNS); parameters: key: 0: no positive effect; 10: slight positive effect; 20: clear positive effect; 30: strong positive effect; details: category vs stressed control plants, 2-3 pots
Protocol: Seeds of monocotyledonous and dicotyledonous crop plants were sown in sandy loam in plastic pots, covered with soil or sand and cultivated in a greenhouse under good growth conditions. The test plants were treated at the early leaf stage (BBCH10-BBCH13). To assure uniform water supply before commencement of stress, the potted plants were supplied with water by dam irrigation prior to substance application. The inventive compounds, formulated in the form of wettable powders (WP), were sprayed onto the green parts of the plants as an aqueous suspension at an equivalent water application rate of 600 I/ha with addition of 0.2% wetting agent (e.g. agrotin). Substance application was followed immediately by stress treatment of the plants. Drought stress was induced by gradual drying out under the following conditions: “Day”: 14 hours with illumination at 26-30° C. “Night”: 10 hours without illumination at 18-20° C. The duration of the respective stress phases was guided mainly by the condition of the stressed control plants. It was ended (by re-irrigating and transfer to a greenhouse with good growth conditions) as soon as irreversible damage was observed on the stressed control plants. The end of the stress phase was followed by an about 4-7-day recovery phase, during which the plants were once again kept under good growth conditions in a greenhouse. The duration of the recovery phase was guided mainly by when the trial plants had attained a state which enabled visual scoring of potential effects, and was therefore variable. Once this juncture had been reached, the appearance of the plants treated with test substances was recorded in comparison to the stressed control plants by the following categories: [table] In order to rule out any influence on the effects observed by any fungicidal or insecticidal action of the test compounds, it was additionally ensured that the tests proceeded without fungal infection or insect infestation. For each substance and dosage, 2-3 pots were treated and evaluated. BRSNS=Brassica napus

| SMILES | Effect (TRZAS) ([1]; dosage 25 g/ha) | ABI1 inhibition [2] | Effect (BRSNS) (Brassica napus (BRSNS); spray application 250 g/ha) | other results |
| --- | --- | --- | --- | --- |
| CCOC(=O)C=C(C#CC(O)(C1(C#N)CC1)C12CC3CC(CC(C3)C1)C2)C(F)(F)F (racemic) [I.1-753] | 10 |  |  |  |
| CC/C(C#CC(O)(C(C)C)C1(C#N)CC1)=C/C(=O)NC1CC1 (stereo not drawn) [I.1-157, (2Z)-6-(1-Cyanocyclopropyl)-N-cyclopropyl-3-ethyl-6-hydroxy-7-methyloct-2-en-4-ynamide] | 10 |  |  |  |
| CCOC(=O)C=C(C=CC(O)(C(C)C)C1(C#N)CC1)CC (racemic) [I.2-103] |  |  |  | Effect (TRZAS) ([1]; dosage 250 g/ha): 30 |
| COC(=O)/C=C(\C#CC(O)(C1CCC1)C1(C#N)CC1)C(F)(F)F (stereo not drawn) [I.1-662] | 10-20 | ++++ (inhibition≥90%) |  |  |
| CCC(C#CC(O)(C1(C#N)CC1)C12CC3CC(CC(C3)C1)C2)=CC(=O)OC (racemic) [I.1-738] | 10 |  |  |  |
| CCOC(=O)C=C(C)C#CC(O)(C(CC)CC)C1(C#N)CC1 (racemic) [I.1-732] | 10 | ++++ (inhibition≥90%) |  |  |
| CCOC(=O)/C=C(\C#CC(O)(c1ccc(F)cc1)C1(C#N)CC1)CC (stereo not drawn) [I.1-503, Ethyl (2Z)-6-(1-cyanocyclopropyl)-3-ethyl-6-(4-fluorophenyl)-6-hydroxyhex-2-en-4-ynoate] |  |  |  | Effect (BRSNS) (Brassica napus (BRSNS); spray application 25 g/ha): 20-30; inhibition [2]: > 90% |
| COC(=O)/C=C(\C#CC(O)(C(C)C)C1(C#N)CC1)C(F)(F)F (stereo not drawn) [I.1-120] |  | +++ (90%>inhibition≥70%) | 20 |  |
| CC/C(C#CC(O)(c1ccc(F)cc1)C1(C#N)CC1)=C/C(=O)OCCOC (stereo not drawn) [I.1-614] |  | ++++ (inhibition≥90%) | 10-20 |  |
| COC(=O)C=C(C#CC(O)(C1(C#N)CC1)C12CC3CC(CC(C3)C1)C2)C(F)(F)F (racemic) [I.1-752] | 10 |  |  |  |
| COC(=O)/C=C(\C=C\C(O)(C(C)C)C1(C#N)CC1)C(F)(F)F (stereo not drawn) [I.2-120, Methyl (2E,4E)-6-(1-cyanocyclopropyl)-6-hydroxy-7-methyl-3-(trifluoro-methyl)octa-2,4-dienoate] |  |  | 30 | inhibition [2]: > 90% |
| CCOC(=O)C=C(C)C#CC(O)(C1(C#N)CC1)C12CC3CC(CC(C3)C1)C2 (racemic) [I.1-762] |  |  |  | Effect (TRZAS) ([1]; dosage 250 g/ha): 10 |
| CCOC(=O)/C=C(/C)C#CC(O)(C1CCCCC1)C1(C#N)CC1 (stereo not drawn) [I.1-702] |  | ++++ (inhibition≥90%) |  | Effect (TRZAS) ([1]; dosage 250 g/ha): 10 |
| CC/C(C#CC(O)(c1ccc(F)cc1)C1(C#N)CC1)=C/C(=O)OC (stereo not drawn) [I.1-502] |  | ++++ (inhibition≥90%) | 20-30 |  |
| CC/C(C#CC(O)(C(C)C)C1(C#N)CC1)=C/C(=O)OC (stereo not drawn) [I.1-102] |  | ++++ (inhibition≥90%) | 30 |  |
